Measurements from patent US20120295893A1, “COMPOSITIONS AND METHODS OF COUNTERACTING RESIDUAL SEDATIVE EFFECTS OF SLEEP/ HYPNOTIC DRUGS” (COERULEUS LTD., priority 2009, published 2012).
Converted amounts (≈) assume the structure as drawn. “Also recorded” adds a separate entry of the source. Where two headings read alike, the source gives them in different places.

Legend:
[1] = system: sleep/hypnotic effect of zolpidem or brotizolam; experiment: Clinical study: Profile Of Mood States (POMS) Brief form
[2] = cited from earlier work
[3] = Gel electrophoresis migration in agarose gel; format: physicochemical; details: pH 4.5 compared with pH 5.5 and 7.2; 0.66 mg/ml, 1% gel, positive electrode
Procedure: The following parameters were applied in order to evaluate migration in agarose gel (1%; 3 mm thick):
Total Width: 15.5 cm; Length: 15 cm; No of Lanes: 4; No of sections: 10; Buffer solution used: TAE (Tris […], Acetic acid, EDTA); Well vol: 10 ul/well; Voltage used: 50V-100V DC; and Run Time: 1 hr.
1. 0.66 mg/ml flumazenil pH 4.5—Positive Electrode 2. 0.66 mg/ml flumazenil pH 5.5—Positive Electrode 3. 0.66 mg/ml flumazenil in tween80 pH 7.2—Positive Electrode

[4] = system: sleep/hypnotic effect of zolpidem or brotizolam; experiment: Clinical study: overall response in performance tasks, flumazenil versus placebo
[5] = Passive transdermal paper feasibility (3M empirical model)
Procedure: The feasibility of transdermal delivery was evaluated for flumazenil and zolpidem. The target transdermal dose for flumazenil used in this assessment was 0.6 mg/hr.
This study addresses the feasibility of passively delivering a drug from a transdermal patch based on requirements specified for flumazenil and thereby provides evaluation of drug diffusion across the skin at a feasible rate. […] The assessment involves first qualitatively assessing the physicochemical properties and target transdermal dose of the drug by comparing them to the properties of an ideal passive transdermal drug.
This maximum limit is defined empirically by a 3M model, which can be used to estimate the largest flux and minimum patch size of the proposed drug product.
The target transdermal flux is calculated by dividing the target transdermal dose by the patch area. Using Fick's Law of Diffusion, the steady-state transdermal flux (μg/cm^2/hr) of a drug across the stratum corneum, j, is described by Equation 1: […]
where D is the diffusion coefficient of the drug in the stratum corneum (cm^2/hr), 1 is the thickness of the stratum corneum, P is the permeability coefficient (cm/hr), and Δc is the drug's concentration gradient across the stratum corneum (μg/mL), which is commonly approximated in the literature, under infinite sink conditions, by the drug's solubility in octanol (coct).
The target drug flux is estimated by dividing the target daily transdermal dose (mg/day) by the target patch size (cm^2). If the target patch size is not defined, then a value of 40 cm^2 is used. Then, using equation (1), the target permeability coefficient can be estimated by dividing the target drug flux by the drug's solubility in octanol.

[6] = system: sleep/hypnotic effect of zolpidem or brotizolam; experiment: Clinical study: immediate Word Recall Test (iWRT)
[7] = cited from earlier work; remark: listed apart in the source
[8] = system: sleep/hypnotic effect of zolpidem or brotizolam; experiment: Clinical study: digit symbol substitution test (DSST)
[9] = system: sleep/hypnotic effect of zolpidem or brotizolam; experiment: Clinical study: Visual Analogue Scale (sleepiness/vigilance, ability to focus, effectiveness)
[10] = Clinical study: vital signs and safety assessments
[11] = high dose FLUMUP 1.6 mg, 10 participants
[12] = N = 20, sublingual 0.4 mg or 1.6 mg, change from post-hypnotic baseline

For `CCOC(=O)c1ncn2c1CN(C)C(=O)c1cc(F)ccc1-2` [Flumazenil, ethyl 8-fluoro-5,6-dihydro-5-methyl-6-oxo-4H-imidazo[1,5-a] [1,4]benzodiazepine-3-carboxylate], the “POMS- fatigue, Δ parameter 20 min aft spray” value ([1]; N = 20, 0.4 or 1.6 mg) was −3.7 ± 0.9, the “POMS- fatigue, Δ parameter 60 min aft spray” value ([1]; N = 20, 0.4 or 1.6 mg) was −5.5 ± 1.0 and the “POMS-Alertness, Δ parameter 20 min aft spray” value ([1]; N = 20, 0.4 or 1.6 mg) was 3.5 ± 0.9. The “POMS-Alertness, Δ parameter 60 min aft spray” value ([1]; N = 20, 0.4 or 1.6 mg) was 5.3 ± 1.2, the “POMS- (first POMS line, r13), % difference Flum vs. P” value [1, 11] was 72% and the “POMS- (first POMS line, r13), Δ parameter 20 min aft spray” value [1, 11] was −5.8 ± 1.6. The “POMS- (first POMS line, r13), Δ parameter 60 min aft spray” value [1, 11] was −8.2 ± 1.6, the “POMS- (second POMS line, r14), % difference Flum vs. P” value [1, 11] was 93% and the “POMS- (second POMS line, r14), Δ parameter 20 min aft spray” value [1, 11] was 4.3 ± 1.5. For the same compound, the “POMS- (second POMS line, r14), Δ parameter 60 min aft spray” value [1, 11] was 7.2 ± 2.0, the pKa ([2]; SciFinderScholar) was 1.14±0.2 and the Ionization ([2]; Table 20A) was “Neutral”. The “log P” value ([2]; Table 20A) was 1, the Ionization ([2]; Table 21) was “Neutral” and the “solubility (in words)” value [2] was “sparingly soluble”. For the same compound, the “solubility in Propylene glycol, PEG 300 and PEG 400” value [2] was about 23 mM (≈ 6980 µg/mL), the “solubility in pure ethanol” value ([2]; maximum) was about 33 mM (≈ 10000 µg/mL) and the pKa ([2]; product information) was 1.78. The “migration in agarose gel” value [3] was “most efficient”, the “difference between flumazenil and placebo, low dose” value ([4]; first 10 subjects, flumazenil 0.4 mg, brotizolam 0.25 mg or zolpidem 10 mg) was “no significant differences; also recorded: could not be better reversed” and the “response: differences between flumazenil and placebo” value ([4]; last 10 participants, flumazenil 1.6 mg, doubled hypnotic dose) was “over 30%”. For the same compound, the “duration of effect following administration” value ([4]; sublingual spray) was “at least 60 min”, the “start of effect following administration” value ([4]; sublingual spray) was at most 20 min and the “log P vs. Ideal transdermal drug (1 to 3)” value [5] was “+”. The “Ionization vs. Ideal transdermal drug (Neutral)” value ([5]; Table 20A) was “+”, the “Ionization vs. Ideal transdermal drug (Neutral)” value ([5]; Table 21) was “+” and the “iWRT, Δ parameter 20 min aft spray” value ([6]; N = 20, 0.4 or 1.6 mg) was 4.2 ± 0.8. For the same compound, the “iWRT, Δ parameter 60 min aft spray” value ([6]; N = 20, 0.4 or 1.6 mg) was 5.4 ± 1.1, the “iWRT, % difference Flum vs. P” value [6, 11] was 92% and the “iWRT, Δ parameter 20 min aft spray” value [6, 11] was 5.5 ± 0.9. For the same compound, the “iWRT, Δ parameter 60 min aft spray” value [6, 11] was 6.1 ± 1.2, the effective plasma level ([7]; for IV 0.2 mg) was 5 to 20 ng/mL and the “time to peak plasma level” value ([7]; from the oral administration) was 20 to 90 min. The “plasma half life time” value ([7]; in vivo) was 7 to 15 min, the protein binding ([7]; in vivo) was 40% and the volume distribution ([7]; in vivo) was 0.63 to 1.6 L/kg. For the same compound, the onset of action ([7]; intravenous) was “few seconds to two minutes”, the “time of peak effect post administration” value ([7]; intravenous) was “six to ten minutes” and the bioavailability ([7]; oral delivery, high hepatic elimination) was 16%. The plasma level ([7]; oral dose of 200-600 mg) was 143 to 439 ng/mL, the “DSST, Δ parameter 20 min aft spray” value ([8]; N = 20, 0.4 or 1.6 mg) was 17.7 ± 2.3 and the “DSST, Δ parameter 60 min aft spray” value ([8]; N = 20, 0.4 or 1.6 mg) was 22.4 ± 3.0. For the same compound, the “DSST, % difference Flum vs. P” value [8, 11] was 92%, the “DSST, Δ parameter 20 min aft spray” value [8, 11] was 23.2 ± 3.4 and the “DSST, Δ parameter 60 min aft spray” value [8, 11] was 30.4 ± 3.6. The “Effectiveness, Δ parameter 20 min aft spray” value ([9]; N = 20, 0.4 or 1.6 mg) was 2.9 ± 0.6, the “Effectiveness, Δ parameter 60 min aft spray” value ([9]; N = 20, 0.4 or 1.6 mg) was 4.5 ± 0.6 and the “Focus Ability, Δ parameter 20 min aft spray” value ([9]; N = 20, 0.4 or 1.6 mg) was 2.7 ± 0.5. The “Focus Ability, Δ parameter 60 min aft spray” value ([9]; N = 20, 0.4 or 1.6 mg) was 4.3 ± 0.6, the “Vigilance, Δ parameter 20 min aft spray” value ([9]; N = 20, 0.4 or 1.6 mg) was 3.0 ± 0.6 and the “Vigilance, Δ parameter 60 min aft spray” value ([9]; N = 20, 0.4 or 1.6 mg) was 4.7 ± 0.6. For the same compound, the “Effectivenes, % difference Flum vs. P” value [9, 11] was 61%, the “Effectivenes, Δ parameter 20 min aft spray” value [9, 11] was 3.8 ± 0.7 and the “Effectivenes, Δ parameter 60 min aft spray” value [9, 11] was 5.5 ± 0.7. For the same compound, the “Focus Ability, % difference Flum vs. P” value [9, 11] was 59%, the “Focus Ability, Δ parameter 20 min aft spray” value [9, 11] was 3.7 ± 0.7 and the “Focus Ability, Δ parameter 60 min aft spray” value [9, 11] was 5.8 ± 0.8. The “Vigilance, % difference Flum vs. P” value [9, 11] was 69%, the “Vigilance, Δ parameter 20 min aft spray” value [9, 11] was 3.6 ± 0.8 and the “Vigilance, Δ parameter 60 min aft spray” value [9, 11] was 5.8 ± 0.8. The “Diastolic BP, Δ parameter 20 min aft spray” value ([10]; N = 20, 0.4 or 1.6 mg) was −0.5 ± 1.5, the “Diastolic BP, Δ parameter 60 min aft spray” value ([10]; N = 20, 0.4 or 1.6 mg) was −2.3 ± 1.2 and the “Systolic BP, Δ parameter 20 min aft spray” value ([10]; N = 20, 0.4 or 1.6 mg) was −5.5 ± 2.3. The “Systolic BP, Δ parameter 60 min aft spray” value ([10]; N = 20, 0.4 or 1.6 mg) was −6.1 ± 2.7, the “Pulse, Δ parameter 20 min aft spray” value [10, 12] was −2.9 ± 1.3 and the “Pulse, Δ parameter 60 min aft spray” value [10, 12] was −3.4 ± 1.6. The “complaints of unusual sensation, pain, nausea, abdominal pain or other side effect” value ([10]; both doses of flumazenil, n=20) was “None of the participants complained”, the “Diastolic BP, % difference Flum vs. P” value [10, 11] was 70% and the “Diastolic BP, Δ parameter 20 min aft spray” value [10, 11] was −2.0 ± 1.9. For the same compound, the “Diastolic BP, Δ parameter 60 min aft spray” value [10, 11] was −2.6 ± 1.8, the “Pulse, % difference Flum vs. P” value [10, 11] was 8% and the “Pulse, Δ parameter 60 min aft spray” value [10, 11] was −1.2 ± 2.7. The “Systolic BP, % difference Flum vs. P” value [10, 11] was 59%, the “Systolic BP, Δ parameter 20 min aft spray” value [10, 11] was −4.7 ± 3.5 and the “Systolic BP, Δ parameter 60 min aft spray” value [10, 11] was −1.7 ± 4.2. For the same compound, the “Pulse, Δ parameter 20 min aft spray” value ([10]; high dose FLUMUP 1.6 mg, 10 participants, doubled hypnotic dose) was −0.4 ± 1.9, the “vital signs (pulse, respiration), temperature and blood pressure” value ([10]; sublingual 0.4 mg and 1.6 mg, n=20) was “within normal values” and the “physical, neurological, mouth and buccal, cardiac and lung examination, ECG” value ([10]; sublingual 0.4 mg and 1.6 mg, with respect to placebo, n=20) was “not adversely affected”.
